Reference: patent US20090270407A1, “FUNGICIDAL ISOXAZOLIDINES” (E. I. DU PONT DE NEMOURS AND COMPANY, priority 2008, published 2009)
Marks after values point to notes of the source that are not given here.

Columns and labels:
Conditions in all cases: 100 = 100 % disease control, 0 = no disease control relative to controls
Botrytis cinerea = assay: Test E: tomato Botrytis, preventive spray on tomato seedlings, visual disease rating
Description: (§1) General protocol for preparing test suspensions for Tests A-I: The test compounds were first dissolved in acetone in an amount equal to 3% of the final volume and then suspended at the desired concentration (in ppm) in acetone and purified water (50/50 mix) containing 250 ppm of the surfactant Trem® 014 (polyhydric alcohol esters). The resulting test suspensions were then used in Tests A-I. Spraying a 200 ppm test suspension to the point of run-off on the test plants was the equivalent of a rate of 500 g/ha.
The test suspension was sprayed to the point of run-off on tomato seedlings. The following day the seedlings were inoculated with a spore suspension of Botrytis cinerea (the causal agent of tomato Botrytis) and incubated in saturated atmosphere at 20° C. for 48 h, and then moved to a growth chamber at 24° C. for 3 additional days, after which time visual disease ratings were made.
(§2) All results are for 200 ppm except where followed by “*” which indicates 40 ppm.

Septoria nodorum = assay: Test C: wheat glume blotch, preventive spray on wheat seedlings, visual disease rating
Description: (An asterisk “*” next to the rating value indicates a 40 ppm test suspension.)
The test suspension was sprayed to the point of run-off on wheat seedlings. The following day the seedlings were inoculated with a spore suspension of Septoria nodorum (the causal agent of wheat glume blotch) and incubated in a saturated atmosphere at 20° C. for 48 h, and then moved to a growth chamber at 20° C. for 7 days, after which time visual disease ratings were made.
(§3) A dash (−) indicates no test results. All results are for 200 ppm except where followed by “*” which indicates 40 ppm.

[1] = tested on: Erysiphe graminis f. sp. tritici; assay: Test A: wheat powdery mildew, preventive spray on wheat seedlings, visual disease rating
Description: (§4) General protocol for preparing test suspensions for Tests A-I: The test compounds were first dissolved in acetone in an amount equal to 3% of the final volume and then suspended at the desired concentration (in ppm) in acetone and purified water (50/50 mix) containing 250 ppm of the surfactant Trem® 014 (polyhydric alcohol esters). The resulting test suspensions were then used in Tests A-I. Spraying a 200 ppm test suspension to the point of run-off on the test plants was the equivalent of a rate of 500 g/ha. (An asterisk “*” next to the rating value indicates a 40 ppm test suspension.)
The test suspension was sprayed to the point of run-off on wheat seedlings. The following day the seedlings were inoculated with a spore dust of Erysiphe graminis f. sp. tritici (the causal agent of wheat powdery mildew) and incubated in a growth chamber at 20° C. for 8 days, after which time visual disease ratings were made.

Septoria tritici = assay: Test D: wheat leaf blotch, preventive spray on wheat seedlings, visual disease rating; type: in vivo
Description: A dash (−) indicates no test results.

[2] = tested on: Puccinia recondita f. sp. tritici; assay: Test B: wheat leaf rust, preventive spray on wheat seedlings, visual disease rating
Description: as §1
The test suspension was sprayed to the point of run-off on wheat seedlings. The following day the seedlings were inoculated with a spore suspension of Puccinia recondita f. sp. tritici (the causal agent of wheat leaf rust) and incubated in a saturated atmosphere at 20° C. for 24 h, and then moved to a growth chamber at 20° C. for 7 days, after which time visual disease ratings were made.
as §2

Alternaria solani = assay: Test F: tomato early blight, preventive spray on tomato seedlings, visual disease rating
Description: as §4
The test suspension was sprayed to the point of run-off on tomato seedlings. The following day the seedlings were inoculated with a spore suspension of Alternaria solani (the causal agent of tomato early blight) and incubated in a saturated atmosphere at 27° C. for 48 h, and then moved to a growth chamber at 20° C. for 5 days, after which time visual disease ratings were made.
as §3

| SMILES | Test E disease control rating (Botrytis cinerea; 200 ppm) [%] | Test C disease control rating (Septoria nodorum; 200 ppm) [%] | Test A disease control rating ([1]; 200 ppm) [%] | Test D disease control rating (Septoria tritici; 200 ppm) [%] | Test B disease control rating ([2]; 200 ppm) [%] | Test F disease control rating (Alternaria solani; 200 ppm) [%] | Test E disease control rating (Botrytis cinerea; 40 ppm (marked *)) | Test C disease control rating (Septoria nodorum; 40 ppm (marked *)) | Test A disease control rating ([1]; 40 ppm (marked *)) | Test D disease control rating (Septoria tritici; 40 ppm (marked *)) | Test B disease control rating ([2]; 40 ppm (marked *)) | Test F disease control rating (Alternaria solani; 40 ppm (marked *)) |
| --- | --- | --- | --- | --- | --- | --- | --- | --- | --- | --- | --- | --- |
| CN1OC(C)(c2cccnc2)CC1c1cccc2ccccc12 (mixture of isomers) [Compound 62] | 88 | 97 | 97 | 80 | 17 | 91 |  |  |  |  |  |  |
| CN1OC(C)(c2cccnc2)CC1c1ccc(-c2ccnn2CC(F)(F)F)cc1 (mixture of isomers) [Compound 63] | 0 | 0 | 21 | 36 | 0 | 8 |  |  |  |  |  |  |
| COc1ccc(C2CC(C)(c3cccnc3)ON2C)c2ccccc12 (mixture of isomers) [Compound 68] | 0 | 0 | 0 | 65 | 0 | 0 |  |  |  |  |  |  |
| CN1OC(C)(c2cccnc2)CC1c1ccc(-c2ccn(CC(F)(F)F)n2)cc1 (mixture of isomers) [Compound 80] | 0 | 0 | 0 | 94 | 0 | 0 |  |  |  |  |  |  |
| CN1OC(C)(c2cccnc2)CC1c1cccc(I)c1 (mixture of isomers) [Compound 87] | 0 | 0 | 0 | 84 | 0 | 0 |  |  |  |  |  |  |
| CN1OC(C)(c2cccnc2)CC1c1ccccc1I (mixture of isomers) [Compound 88] | 0 | 0 | 81 | 70 | 27 | 0 |  |  |  |  |  |  |
| CN1OC(C)(c2cccnc2)CC1c1cccc2c1OC(F)(F)O2 (mixture of isomers) [Compound 89] | 0 | 0 | 0 | 36 | 0 | 16 |  |  |  |  |  |  |
| CN(C)c1ccc(C2CC(C)(c3cccnc3)ON2C)c2ccccc12 (mixture of isomers) [Compound 90] | 0 | 0 | 0 | 35 | 0 | 0 |  |  |  |  |  |  |
| Cc1cccc(C2CC(C)(c3cccnc3)ON2C)c1 (mixture of isomers) [Compound 98] |  |  |  |  |  |  | 0* % | 0* % | 0* % | 3* % | 0* % | 0* % |
| Cc1ccccc1C1CC(C)(c2cccnc2)ON1C (mixture of isomers) [Compound 99] | 0 | 0 | 0 | 18 | 17 | 0 |  |  |  |  |  |  |
| COc1ccccc1C1CC(C)(c2cccnc2)ON1C (mixture of isomers) [Compound 100] | 26 | 0 | 21 | 13 | 0 | 8 |  |  |  |  |  |  |
| COC(=O)c1ccc(C2CC(C)(c3cccnc3)ON2C)cc1 (stereo not drawn) [Compound 39] | 90 | 51 | 88 | 32 | 0 | 0 |  |  |  |  |  |  |
| CN1OC(C)(c2cccnc2)CC1c1ccc(-n2ccc(-c3ccccc3)n2)cc1 (stereo not drawn) [Compound 40] |  |  |  |  |  |  | 75* % | 64* % | 78* % | 77* % | 0* % | 0* % |
| CN1OC(C)(c2cccnc2)CC1c1ccc(-n2ccc(-c3ccccc3)n2)cc1 (stereo not drawn) [Compound 41] |  |  |  |  |  |  | 0* % | 0* % | 78* % | 65* % | 0* % | 0* % |
| Cc1ccn(-c2ccc(C3CC(C)(c4cccnc4)ON3C)cc2)n1 (stereo not drawn) [Compound 42] |  |  |  |  |  |  | 99* % | 100* % | 71* % | 88* % | 9* % | 97* % |
| Cc1ccn(-c2ccc(C3CC(C)(c4cccnc4)ON3C)cc2)n1 (stereo not drawn) [Compound 43] |  |  |  |  |  |  | 88* % | 90* % | 0* % | 79* % | 0* % | 52* % |
| CN1OC(c2cccnc2)(C(F)(F)F)CC1c1ccc(-n2ccc(C(F)(F)F)n2)cc1 (stereo not drawn) [Compound 44] |  |  |  |  |  |  | 0* % | 69* % | 100* % | 89* % | 19* % | 0* % |
| CN1OC(c2cccnc2)(C(F)(F)F)CC1c1ccc(-n2ccc(C(F)(F)F)n2)cc1 (stereo not drawn) [Compound 45] |  |  |  |  |  |  | 0* % | 0* % | 96* % | 52* % | 0* % | 0* % |
| CN1OC(C)(c2cccnc2)CC1c1ccc(-n2ccc(-c3cccs3)n2)cc1 (stereo not drawn) [Compound 46] |  |  |  |  |  |  | 78* % | 0* % | 0* % | 62* % | 0* % | 0* % |
| CN1OC(C)(c2cccnc2)CC1c1ccc(-n2ccc(-c3cccs3)n2)cc1 (stereo not drawn) [Compound 47] |  |  |  |  |  |  | 0* % | 0* % | 35* % | 42* % | 0* % | 0* % |
| CN1OC(C)(c2cccnc2)CC1c1ccc(-n2ccc(-c3ccc(Br)cc3)n2)cc1 (stereo not drawn) [Compound 48] |  |  |  |  |  |  | 20* % | 0* % | 61* % | 43* % | 0* % | 0* % |
| CN1OC(C)(c2cccnc2)CC1c1ccc(-n2ccc(-c3ccc(Br)cc3)n2)cc1 (stereo not drawn) [Compound 49] |  |  |  |  |  |  | 0* % | 0* % | 61* % | 27* % | 0* % | 0* % |
| Cc1cc(C)n(-c2ccc(C3CC(C)(c4cccnc4)ON3C)cc2)n1 (stereo not drawn) [Compound 50] |  |  |  |  |  |  | 84* % | 87* % | 0* % | 73* % | 0* % | 0* % |
